The source of these data is ChEMBL document CHEMBL5154722, “Identification of new potent anticancer derivatives through simplifying the core structure and modification on their 14- hydroxyl group from oridonin” (Eur J Med Chem, 2022).

Calls of active or inactive are those of the source. The calls are words filed in the database; no cut-off is given here.

For data set [1], the system named is K562. Kind of data set: Induction of apoptosis in human K562 cells assessed as late apoptotic cells at 50 nM measured after 48 hrs by Annexin V-FITC/PI staining based flow cytometry method (reference value: 3.53%). Type of data set: functional.
In data set [2] the test system is K562. Briefly: Induction of apoptosis in human K562 cells assessed as increase in Bax level at 25 to 100 nM measured after 48 hrs by Western blot analysis. Conditions: dose 25-100 nM. Type of data set: functional, cell-based.
Data set [3] relates to K562. Kind of data set: Induction of apoptosis in human K562 cells assessed as early apoptotic cells at 25 nM measured after 48 hrs by Annexin V-FITC/PI staining based flow cytometry method (reference value: 1.62%). Type of data set: functional.
For data set [4], the system named is K562. Briefly: Induction of apoptosis in human K562 cells assessed as decrease in Bcl-2 level at 25 to 100 nM measured after 48 hrs by Western blot analysis. Type of data set: functional, cell-based. Conditions: dose 25-100 nM. (Immunoblotting shows a protein as a band on a membrane.)
Data set [5] relates to K562. Briefly: Inhibition of MAPK signaling pathway in human K562 cells assessed as reduction in phosphorylated MEK measured after 48 hrs by Western blot analysis. Type of data set: cell-based. Conditions: dose 25-100 nM, DDE = dose-dependent effect.
Data set [6] is described as follows: Toxicity in ICR mouse allografted with mouse H22 cells assessed as effect on heart morphology at 10 to 20 mg/kg, iv administered once a day for 21 days after 7 days of tumor implantation by H and E staining method. Type of data set: organism-based. Conditions: in vivo, 504 h, dose 10-20 mg/kg, time 21 day.
In the next data set the test system is MCF7. Kind of data set: Antiproliferative activity against human MCF7 cells assessed as reduction in cell viability incubated for 72 hrs by MTT assay. Type of data set: functional, cell-based. Conditions: MCF7, 72 h. (Formazan colour is commonly taken as a measure of viable cells.)
The next data set deals with MDA-MB-231. Briefly: Antiproliferative activity against human MDA-MB-231 cells assessed as reduction in cell viability incubated for 72 hrs by MTT assay. Type of data set: functional, cell-based. Conditions: MDA-MB-231, 72 h.
Data set [7] concerns K562. Briefly: Induction of cell cycle arrest in human K562 cells assessed as accumulation of cells at S phase at 25 nM measured after 48 hrs by propidium iodide staining-based flow cytometric analysis (reference value: 37.29%). It is filed as functional. On the technique in general: In flow cytometry, cells or beads pass a laser one at a time.
Data set [8] deals with K562. Briefly: Induction of cell cycle arrest in human K562 cells assessed as accumulation of cells at G1 phase at 100 nM measured after 48 hrs by propidium iodide staining-based flow cytometric analysis (reference value: 47.40%). Type of data set: functional.
For data set [9], the system named is K562. Kind of data set: Induction of apoptosis in human K562 cells assessed as reduction in phosphorylated ERK level measured after 48 hrs by Western blot analysis. It is filed as functional, cell-based. Conditions: dose 25-100 nM, DDE = dose-dependent effect.
The nature of data set [10]: Toxicity in ICR mouse allografted with mouse H22 cells assessed as effect on lung morphology at 10 to 20 mg/kg, iv administered once a day for 21 days after 7 days of tumor implantation by H and E staining method. Type of data set: organism-based. Conditions: in vivo, 504 h, dose 10-20 mg/kg, time 21 day.
Data set [11] has as its system K562. Kind of data set: Induction of apoptosis in human K562 cells assessed as early apoptotic cells at 100 nM measured after 48 hrs by Annexin V-FITC/PI staining based flow cytometry method (reference value: 1.62%). Type of data set: functional.
Data set [12] can be described thus: Toxicity in ICR mouse allografted with mouse H22 cells assessed as effect on spleen morphology at 10 to 20 mg/kg, iv administered once a day for 21 days after 7 days of tumor implantation by H and E staining method. Type of data set: organism-based. Conditions: in vivo, 504 h, dose 10-20 mg/kg, time 21 day.
For data set [13], the system named is K562. Briefly: Induction of apoptosis in human K562 cells assessed as necrotic cells at 100 nM measured after 48 hrs by Annexin V-FITC/PI staining based flow cytometry method (reference value: 0.44%). Type of data set: functional.
Data set [14] is described as follows: Cytotoxicity against human L02 cells assessed as reduction in cell viability incubated for 72 hrs by MTT assay. Type of data set: toxicity, cell-based.
A short description of data set [15]: Antiproliferative activity against human U-87 MG cells assessed as reduction in cell viability incubated for 72 hrs by MTT assay. It is filed as functional, cell-based, U-87MG ATCC.
Data set [16] deals with K562. Briefly: Induction of cell cycle arrest in human K562 cells assessed as accumulation of cells at G2 phase at 25 nM measured after 48 hrs by propidium iodide staining-based flow cytometric analysis (reference value: 15.30%). It is filed as functional.
Data set [17] has as its system K562. Briefly: Induction of apoptosis in human K562 cells assessed as reduction in phosphorylated Akt level measured after 48 hrs by Western blot analysis. It is filed as functional, cell-based. Conditions: dose 25-100 nM, DDE = dose-dependent effect.
The subject of data set [18] is K562. Briefly: Inhibition of MAPK signaling pathway in human K562 cells assessed as reduction in MEK level measured after 48 hrs by Western blot analysis. Conditions: dose 25-100 nM, DDE = dose-dependent effect. It is filed as cell-based.
Data set [19] relates to K562. Kind of data set: Induction of apoptosis in human K562 cells assessed as late apoptotic cells at 100 nM measured after 48 hrs by Annexin V-FITC/PI staining based flow cytometry method (reference value: 3.53%). Type of data set: functional.
For data set [20], the system named is K562. Kind of data set: Induction of apoptosis in human K562 cells assessed as intracellular ROS generation measured after 48 hrs by DCFH-DA staining based flow cytometry method. Type of data set: functional, cell-based. Conditions: dose 25-100 nM, DDE = dose-dependent effect.
For another data set, the system named is H22. Briefly: Antitumor activity against mouse H22 cells allografted in ICR mouse assessed as reduction in tumor volume at 20 mg/kg, iv administered once a day for 21 days after 7 days of tumor implantation measured every two days. It is filed as functional, organism-based. Conditions: time 21.0 day.

Regarding `C=C1C(=O)[C@]23[C@H](OC(=O)/C=C/c4ccncc4)[C@H]1CC[C@H]2[C@]12CCCC(C)(C)[C@H]1[C@H](O)[C@@]3(O)OC2`, the Activity with K562 [1] is 19.26%; in the data set on K562 [3], 10.6%; with K562 [5] it was “Dde”; in [6], “Non-Toxic”; with K562 [7], 38.36%; with K562 [8] it was 33.85%. Moreover, the Activity result in the data set with K562 [9] is “Dde”; in data set [10], “Non-Toxic”; with K562 [11], 42.81%; in [12] it was “Non-Toxic”; in the data set on K562 [13], 3.25%; in the data set with K562 [16], 22.14%. The Activity entry is “Dde” with K562 [17], “Dde” with K562 [18], 20.92% in the data set with K562 [19] and “Dde” with K562 [20]. The result with K562 [2], in the data set on K562 [4] and with H22 was Active. Further, the values for the IC50 (in the data set with MCF7; in the data set with MDA-MB-231; in data set [15]) were 700 nM, 420 nM and 840 nM, respectively. In data set [14], the IC50 (usually the concentration at which inhibition is half-maximal) at 72 h was determined as 3.18 µM.
